In one series the target is CYP2D6 (Homo sapiens, UniProt P10635). The series is described as follows: Cytochrome inhibition, fluorometric microtiter plate assay (substrate AMMC). It is filed as biochemical. From the text:
(§1) Among the xenobiotic-metabolizing CYPs, five forms, CYP1A2, CYP2C9, CYP2C19, CYP2D6 and CYP3A4 appear to be the major CYP isoforms responsible for the oxidative metabolism of drugs or xenobiotics. Inhibition of CYP-mediated metabolism, often the mechanism for drug-drug interactions, can limit the use of a drug because of adverse clinical effects. The potential for CYP enzyme inhibition is routinely assessed by performing in vitro inhibition studies by measuring the rates of metabolism of a probe biotransformation in the presence and absence of test molecules. […] The incubation conditions for each cytochrome isoform were as follow: [table]

Another series deals with CYP3A4 (Homo sapiens, UniProt P08684). Put plainly: Cytochrome inhibition, fluorometric microtiter plate assay (substrate BFC). It is filed as biochemical.
Description: as §1

Series [1] deals with human histamine H3 receptors (Homo sapiens, UniProt Q9Y5N1). Put plainly: H3 binding ([125I]iodoproxyfan, membranes). Particulars: hH3 binding of the radioligand. On the procedure: Membranes expressing human histamine H3 receptors were incubated 1 hour at room temperature in binding buffer containing 50 mM Na2HPO4/KH2PO4 pH 7.5 in a final volume of 200 µl. […] Non-specific binding was determined in the presence of 1 µM lmetit. The reaction was stopped by rapid filtration through GF/B filters (pre-soaked for 2 hours with 0.3% polyethyleneimine) followed by 3 ice cold binding buffer washes. The filter-bound radioactivity was measured in a liquid scintillation counter with 50µl of scintillation fluid.

Setting [2] is: compounds of the invention, human recombinant CYP2D6.
[3] abbreviates: compounds of the invention, human recombinant CYP3A4.

Structures are written as SMILES. Read-outs that look alike come from different tables or passages of the source.

Sequence of CYP2D6 (P10635 whole entry, canonical isoform): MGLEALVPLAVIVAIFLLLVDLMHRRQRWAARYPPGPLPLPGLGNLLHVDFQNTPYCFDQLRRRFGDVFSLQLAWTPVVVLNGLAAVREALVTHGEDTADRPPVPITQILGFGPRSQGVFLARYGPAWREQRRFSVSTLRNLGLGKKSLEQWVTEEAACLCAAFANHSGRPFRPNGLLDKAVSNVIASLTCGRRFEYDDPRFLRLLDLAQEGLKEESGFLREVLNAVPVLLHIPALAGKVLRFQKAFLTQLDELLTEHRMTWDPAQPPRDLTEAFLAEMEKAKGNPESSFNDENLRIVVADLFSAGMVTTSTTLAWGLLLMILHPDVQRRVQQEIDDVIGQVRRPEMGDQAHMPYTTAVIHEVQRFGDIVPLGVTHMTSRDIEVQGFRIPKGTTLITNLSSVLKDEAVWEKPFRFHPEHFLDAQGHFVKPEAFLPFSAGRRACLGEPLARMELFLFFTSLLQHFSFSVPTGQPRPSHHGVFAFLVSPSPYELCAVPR
Sequence of CYP3A4 (P08684 whole entry): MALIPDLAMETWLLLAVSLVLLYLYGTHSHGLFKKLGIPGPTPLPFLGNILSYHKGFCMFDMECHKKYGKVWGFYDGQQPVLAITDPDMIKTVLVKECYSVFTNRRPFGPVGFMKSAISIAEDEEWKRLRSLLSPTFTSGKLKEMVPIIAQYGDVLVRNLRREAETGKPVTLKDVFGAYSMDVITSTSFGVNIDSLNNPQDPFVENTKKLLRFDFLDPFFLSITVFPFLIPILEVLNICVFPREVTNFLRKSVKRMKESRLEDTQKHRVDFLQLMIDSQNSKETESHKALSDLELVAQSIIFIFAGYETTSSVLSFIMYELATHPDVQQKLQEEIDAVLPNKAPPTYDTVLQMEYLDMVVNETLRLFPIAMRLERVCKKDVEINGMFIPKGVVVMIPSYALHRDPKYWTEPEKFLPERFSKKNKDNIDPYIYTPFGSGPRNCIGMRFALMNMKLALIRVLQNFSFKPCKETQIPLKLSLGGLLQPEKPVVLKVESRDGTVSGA
Sequence of human histamine H3 receptors (Q9Y5N1 whole entry): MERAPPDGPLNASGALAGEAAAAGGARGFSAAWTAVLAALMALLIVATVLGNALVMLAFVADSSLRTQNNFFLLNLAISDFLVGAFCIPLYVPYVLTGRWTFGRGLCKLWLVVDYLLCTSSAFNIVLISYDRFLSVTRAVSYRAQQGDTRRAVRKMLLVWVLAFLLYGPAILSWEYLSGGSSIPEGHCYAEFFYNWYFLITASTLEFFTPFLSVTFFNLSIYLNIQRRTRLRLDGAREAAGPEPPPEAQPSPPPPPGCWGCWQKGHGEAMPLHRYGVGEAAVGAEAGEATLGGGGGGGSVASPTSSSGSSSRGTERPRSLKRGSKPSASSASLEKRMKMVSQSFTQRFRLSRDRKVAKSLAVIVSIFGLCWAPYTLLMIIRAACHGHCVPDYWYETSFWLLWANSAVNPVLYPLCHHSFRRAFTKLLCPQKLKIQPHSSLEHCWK

In the case of `C[C@H]1C[C@H](C)CN(CCCOc2ccc(C(=O)N(C)C)cc2)C1` (relative stereo) [Example 1, trans-1-{3-[4-(N,N-dimethylcarbamoyl)phenoxy]propyl}-3,5-dimethylpiperidine], the IC50 at CYP2D6 (setting [2]) is over 100000 nM.
As to `C[C@H]1C[C@H](C)CN(CCCOc2ccc(C3=NCCC3)cc2)C1` (relative stereo) [Example 17, trans-1-{3-[4-(4,5-dihydro-3H-pyrrol-2-yl)phenoxy]propyl}-3,5-dimethylpiperidine], the IC50 on CYP3A4 (setting [3]) and on CYP2D6 (setting [2]) was over 100000 nM throughout.
In the case of `Cc1ccc(-c2ccc(OCCCN3CCCCC3)cc2)cc1` [Example 24, 1-{3-[(4'-methylbiphenyl-4-yl)oxy]propyl}piperidine], the IC50 on CYP3A4 (setting [3]) is over 2000 nM.
On to `Cc1cc(-c2ccc(OCCCN3CCC[C@H](C)C3)cc2)ccn1` [Example 59], for which the IC50 was over 1000 nM at CYP3A4 (read-out: CYP3A4 (IC50, concentrations for 50% inhibition), comparative compounds of WO 00/06254) and 1000 nM on CYP2D6 (read-out: CYP2D6 (IC50, concentrations for 50% inhibition), comparative compounds of WO 00/06254).
By Kd is commonly meant the concentration at which binding is half-saturated. A low value points to higher affinity. Regarding `Ic1ccc(COCCCc2cnc[nH]2)cc1` [[^125]iodoproxyfan], the affinity in series [1], expressed as Kd, was 0.078 ± 0.006 nM.

The values above are taken from patent publication EP1717234A1, “Phenoxypropylpiperidines and -pyrrolidines and their use as histamine H3-receptor ligands” (BIOPROJET, priority 2005, dated 2006).
